PubChem BioAssay (NCI)
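Grown in 96-well plates, cells were treated for 48 hours with each compound at five concentrations. Insufficient inhibition: endpoint recorded as highest concentration tested. The concentration for 50% growth inhibition is given as GI50. TGI: total growth inhibition.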

Columns and labels:
Experiment in all cases: NCI anticancer screen, dose series, 48 h
SK-OV-3 ovarian = tested on: SK-OV-3 ovarian
DU-145 prostate = tested on: DU-145 prostate
NCI/ADR-RES ovarian = tested on: NCI/ADR-RES ovarian
IGROV1 ovarian = tested on: IGROV1 ovarian
SF-295 CNS = tested on: SF-295 CNS
OVCAR-4 ovarian = tested on: OVCAR-4 ovarian
HS 578T breast = tested on: HS 578T breast
786-0 renal = tested on: 786-0 renal
OVCAR-8 ovarian = tested on: OVCAR-8 ovarian
UACC-257 melanoma = tested on: UACC-257 melanoma
U251 CNS = tested on: U251 CNS
ACHN renal = tested on: ACHN renal
SNB-75 CNS = tested on: SNB-75 CNS
NCI-H226 lung = tested on: NCI-H226 lung
NCI-H460 lung = tested on: NCI-H460 lung
EKVX NSCLC = tested on: EKVX NSCLC
CCRF-CEM leukemia = tested on: CCRF-CEM leukemia
KM12 colon = tested on: KM12 colon
UACC-62 melanoma = tested on: UACC-62 melanoma
A549 NSCLC = tested on: A549 NSCLC
SK-MEL-28 melanoma = tested on: SK-MEL-28 melanoma
SR leukemia = tested on: SR leukemia
RPMI-8226 leukemia = tested on: RPMI-8226 leukemia
RXF 393 renal = tested on: RXF 393 renal
HCT-15 colon = tested on: HCT-15 colon
OVCAR-3 ovarian = tested on: OVCAR-3 ovarian
BT-549 breast = tested on: BT-549 breast
HOP-62 NSCLC = tested on: HOP-62 NSCLC
T-47D breast = tested on: T-47D breast

CCOc1ccc([C@H]2C(C(=O)c3ccc(Cl)cc3)C3(N[C@@H]2c2ccccc2)C(=O)Nc2ccc(Br)cc23)cc1 (some centres not stated)
GI50 (SK-OV-3 ovarian): 14.5 µM | TGI (SK-OV-3 ovarian): 28.3 µM | GI50 (DU-145 prostate): 17.7 µM | TGI (DU-145 prostate): 38 µM | GI50 (NCI/ADR-RES ovarian): 19.8 µM | TGI (NCI/ADR-RES ovarian): 44.8 µM | GI50 (IGROV1 ovarian): 14.2 µM | TGI (IGROV1 ovarian): 31.6 µM | GI50 (SF-295 CNS): 16.1 µM | TGI (SF-295 CNS): 30.3 µM | GI50 (OVCAR-4 ovarian): 14.3 µM | TGI (OVCAR-4 ovarian): 28.1 µM | GI50 (HS 578T breast): 17.9 µM | TGI (HS 578T breast): 47.8 µM | GI50 (786-0 renal): 15.4 µM | TGI (786-0 renal): 30.1 µM | GI50 (OVCAR-8 ovarian): 16.4 µM | TGI (OVCAR-8 ovarian): 32 µM | GI50 (UACC-257 melanoma): 14.7 µM | TGI (UACC-257 melanoma): 29 µM | GI50 (U251 CNS): 15 µM | TGI (U251 CNS): 29.8 µM | GI50 (ACHN renal): 15 µM | TGI (ACHN renal): 28.6 µM | GI50 (SNB-75 CNS): 11.3 µM | TGI (SNB-75 CNS): 23.7 µM | GI50 (NCI-H226 lung): 15.1 µM | TGI (NCI-H226 lung): 32.6 µM | GI50 (NCI-H460 lung): 16.7 µM | TGI (NCI-H460 lung): 35.5 µM | GI50 (EKVX NSCLC): 15.9 µM | TGI (EKVX NSCLC): 35.4 µM | GI50 (CCRF-CEM leukemia): 23.1 µM | TGI (CCRF-CEM leukemia): 72 µM | GI50 (KM12 colon): 17.1 µM | TGI (KM12 colon): 49.1 µM | GI50 (UACC-62 melanoma): 13.3 µM | TGI (UACC-62 melanoma): 27.1 µM | GI50 (A549 NSCLC): 13.9 µM | TGI (A549 NSCLC): 28.9 µM | GI50 (SK-MEL-28 melanoma): 16.1 µM | TGI (SK-MEL-28 melanoma): 30.4 µM | GI50 (SR leukemia): 15.5 µM | TGI (SR leukemia): 44 µM | GI50 (RPMI-8226 leukemia): 22 µM | TGI (RPMI-8226 leukemia): 70.8 µM | GI50 (RXF 393 renal): 13.1 µM | TGI (RXF 393 renal): 26.1 µM | GI50 (HCT-15 colon): 16.1 µM | TGI (HCT-15 colon): 35.3 µM | GI50 (OVCAR-3 ovarian): 17.5 µM | TGI (OVCAR-3 ovarian): 38 µM | GI50 (BT-549 breast): 15.6 µM | TGI (BT-549 breast): 29.9 µM | GI50 (HOP-62 NSCLC): 14.3 µM | TGI (HOP-62 NSCLC): 28 µM | GI50 (T-47D breast): 14.2 µM
